This passage reports IC50 results from patent US20070287738A1, “Substituted Cyanopyridines as protein kinase inhibitors” (priority 2006, published 2007).

For orientation: pIC50 means −log10 of the IC50, conventionally taken in molar units.

pIC50: −log10 of the molar value.

Format in all cases: biochemical
Assay [1] concerns the target T1, purified recombinant active kinase domain of full length PKC theta (amino acids 362-706) (Homo sapiens, UniProt Q04759).
T1 construct: active kinase domain of full length PKC theta (amino acids 362-706)
Put plainly: Radioactive kinase assay for inhibition of the active kinase domain (KD) of PKCθ. To be noted: radioactive (ATP γ P33) assay, average value. Here is the method: A Radioactive Kinase Assay for Inhibition of the Active Kinase Domain (KD) of PKCθ
(§1) This assay is based on the phosphorylation of a biotinylated substrate by a kinase utilizing radiolabeled ATP (ATP γ P33). The substrate was a biotinylated peptide with a sequence of biotin-FARKGSLRQ-C(O)NH2. The enzyme was purified recombinant active kinase domain of full length PKC theta (amino acids 362-706). The assay buffer was composed of 100 mM Hepes, pH7.5, 2 mM MgCl2, 20 mM β-glycerophosphate and 0.008% TritonX 100. A reaction mixture of ATP, ATP γ P33 (PerkinElmer), DTT, and the enzyme was prepared in the assay buffer and added to a 96-well polypropylene plate. The compound (diluted in DMSO in a separate 96-well polypropylene plate) was added to the reaction mixture and incubated at room temperature. Following the incubation, the peptide substrate was added to the reaction mixture to initiate the enzymatic reaction. The reaction was terminated with the addition of a stop solution (100 mM EDTA, 0.2% TritonX100, and 20 mM NaHPO4) and transferred from the assay plate to a washed streptavidin-coated 96-well scintiplate (PerkinElmer). The scintiplate was incubated at room temperature, washed in PBS with 0.1% TritonX 100, and counted in the 1450 Microbeta Trilux (Wallac, Version 2.60). Counts were recorded for each well as corrected counts per minute (CCPM). The counts were considered corrected because they were adjusted according to a P33 normalization protocol, which corrects for efficiency and background differences between the instrument detectors (software version 4.40.01).

The target in assay [2] is T2, purified recombinant full length PKC theta (Panvera, P2996) (Homo sapiens, UniProt Q04759).
T2 construct: purified recombinant full length PKC theta (Panvera, P2996); purchased Panvera P2996
T2 sequence (Q04759 whole entry): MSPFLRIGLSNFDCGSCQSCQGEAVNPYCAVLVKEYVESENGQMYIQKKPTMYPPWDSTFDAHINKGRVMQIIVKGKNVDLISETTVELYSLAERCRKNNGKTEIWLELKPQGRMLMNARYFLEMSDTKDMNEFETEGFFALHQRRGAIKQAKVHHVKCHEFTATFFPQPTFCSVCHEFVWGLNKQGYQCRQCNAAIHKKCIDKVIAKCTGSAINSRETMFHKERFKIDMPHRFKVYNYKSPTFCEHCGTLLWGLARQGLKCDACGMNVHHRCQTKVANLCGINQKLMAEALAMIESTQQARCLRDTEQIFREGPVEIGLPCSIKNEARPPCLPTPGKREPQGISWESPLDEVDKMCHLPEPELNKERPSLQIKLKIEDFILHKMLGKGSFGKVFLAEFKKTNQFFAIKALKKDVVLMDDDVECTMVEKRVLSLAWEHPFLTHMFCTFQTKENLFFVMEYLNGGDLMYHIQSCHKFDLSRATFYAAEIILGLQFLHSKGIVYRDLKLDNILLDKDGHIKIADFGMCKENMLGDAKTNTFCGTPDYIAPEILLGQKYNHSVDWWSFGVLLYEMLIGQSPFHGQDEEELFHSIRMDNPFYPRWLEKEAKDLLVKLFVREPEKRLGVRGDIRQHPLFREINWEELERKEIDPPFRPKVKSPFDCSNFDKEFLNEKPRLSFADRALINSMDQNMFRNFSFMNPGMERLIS
Put plainly: Radioactive kinase assay for inhibition of full length (FL) PKCθ. As to conditions: full length enzyme; radioactive (ATP γ P33) assay; average value. Here is the method:
as §1
A Radioactive Kinase Assay for Inhibition of Full Length (FL) PKCθ Inhibitors
This assay differs from what was described above in that the enzyme used was purified recombinant full length PKC theta (Panvera, P2996).

For assay [3], the target named is T3, human PKCθ full length enzyme (Homo sapiens, UniProt Q04759).
T3 construct: human PKCθ full length enzyme (Panvera Cat# P2996); purchased Panvera P2996
T3 sequence (Q04759 whole entry): as above
Kind of assay: PKCθ IMAP assay. As to conditions: full length enzyme 1 nM; ATP 6 μM; peptide 100 nM; FP readout; average value. Here is the method:
The materials used include the following: human PKCθ full length enzyme (Panvera Cat# P2996); substrate peptide: 5FAM-RFARKGSLRQKNV-OH (Molecular Devices, RP7032); ATP (Sigma Cat # A2383); DTT (Pierce, 20291); 5× kinase reaction buffer (Molecular Devices, R7209); 5× binding buffer A (Molecular Devices, R7282), 5× binding buffer B (Molecular Devices, R7209); IMAP Beads (Molecular Devices, R7284); and 384-well plates (Corning Costar, 3710).
The reaction buffer was prepared by diluting the 5× stock reaction buffer and adding DTT to obtain a concentration of 3.0 mM. The binding buffer was prepared by diluting the 5× binding buffer A. A master mix solution was prepared using a 90% dilution of the reaction buffer containing 2× ATP (12 uM) and 2× peptide (200 nm). Compounds were diluted in DMSO to 20× of the maximum concentration for the IC50 measurement. 27 μl of the master mix solution for each IC50 curve was added to the first column in a 384-well plate and 3 μl of 20× compound in DMSO was added to each well. The final concentration of compound was 2× and 10% DMSO. DMSO was added to the rest of the master mix to increase the concentration to 10%. 10 μl of the master mix containing 10% DMSO was added to the rest of the wells on the plate except the 2nd column. 20 μl was transferred from the first column to the 2nd column.
The compounds were serially diluted in 2:1 ratio starting from the 2nd column. A 2× (2 nM) PKCθ solution was made in the reaction buffer. 10 μl of the PKCθ solution was added to every well to achieve these final concentrations: PKCθ—1 nM; ATP—6 μM; peptide—100 nM; DMSO—5%. Samples were incubated for 25 minutes at room temperature. The binding reagent was prepared by diluting the beads in 1× binding buffer to 800:1. 50 μl of the binding reagent was added to every well and incubated for 20 minutes. FP was measured using Envision2100 (PerkinElmer Life Sciences). Wells with no ATPs and wells with no enzymes were used as controls.

T1 sequence (Q04759 362-706): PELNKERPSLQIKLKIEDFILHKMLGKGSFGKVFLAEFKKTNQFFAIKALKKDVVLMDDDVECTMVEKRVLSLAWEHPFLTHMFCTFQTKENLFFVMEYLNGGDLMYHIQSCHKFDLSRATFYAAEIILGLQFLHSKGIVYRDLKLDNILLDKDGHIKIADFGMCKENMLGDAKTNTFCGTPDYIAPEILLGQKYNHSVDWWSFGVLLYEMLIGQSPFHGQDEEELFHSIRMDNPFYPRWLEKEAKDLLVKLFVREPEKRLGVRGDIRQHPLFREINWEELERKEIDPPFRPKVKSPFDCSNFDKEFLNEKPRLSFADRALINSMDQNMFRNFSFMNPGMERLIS

With `COc1ccc(-c2cncc(C#N)c2Nc2ccc(Cl)c(Cl)c2)cc1OC` [Compound 115, 4-[(3,4-dichlorophenyl)amino]-5-(3,4-dimethoxyphenyl)nicotinonitrile], the figures for the pIC50 in assay [1] and in assay [2] were 5.37 and 6.42, respectively.
As to `COc1cc(Nc2c(C#N)cncc2-c2ccc(OC)c(OC)c2)c(Cl)cc1Cl` [Compound 137, 4-[(2,4-dichloro-5-methoxyphenyl)amino]-5-(3,4-dimethoxyphenyl)nicotinonitrile], the pIC50 was 6.72 in assay [1], 6.80 in assay [2] and 6.74 in assay [3].
